Source: patent US4401604A, “Process for preparing thiosulfenamide derivatives of N-phosphonomethylglycine triesters” (Monsanto Company, priority 1981, dated 1983)

Experiments:
Type in all cases: in vivo
[1] = tested on: Velvetleaf; experiment: Pre-emergent herbicidal activity; conditions: Table III; 11.2 kg/h; 2 WAT
Procedure, shortened: (§1)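 Emergence counts versus untreated controls, taken after approximately two weeks on a wet sand bench, give an index of average percent control per species. The active ingredient, at a known amount, is blended into the soil that covers seeds pressed onto compacted top soil; watering occurs through the pan bottoms.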

[2] = tested on: Smartweed; experiment: Pre-emergent herbicidal activity; conditions: Table III; 11.2 kg/h; 2 WAT
Procedure, shortened: as §1

[3] = tested on: Johnsongrass; experiment: Pre-emergent herbicidal activity; conditions: Table III; 11.2 kg/h; 2 WAT
Procedure, shortened: as §1

[4] = tested on: Cocklebur; experiment: Pre-emergent herbicidal activity; conditions: Table III; 11.2 kg/h; 2 WAT
Procedure, shortened: as §1

[5] = tested on: Barnyardgrass; experiment: Pre-emergent herbicidal activity; conditions: Table III; 11.2 kg/h; 2 WAT
Procedure, shortened: as §1

[6] = tested on: Quackgrass; experiment: Pre-emergent herbicidal activity; conditions: Table III; 11.2 kg/h; 2 WAT
Procedure, shortened: as §1

[7] = tested on: Downy Brome; experiment: Pre-emergent herbicidal activity; conditions: Table III; 11.2 kg/h; 2 WAT
Procedure, shortened: as §1

[8] = tested on: Lambsquarters; experiment: Pre-emergent herbicidal activity; conditions: Table III; 11.2 kg/h; 2 WAT
Procedure, shortened: as §1

[9] = tested on: Yellow Nutsedge; experiment: Pre-emergent herbicidal activity; conditions: Table III; 11.2 kg/h; 2 WAT
Procedure, shortened: as §1

[10] = tested on: Canada Thistle; experiment: Pre-emergent herbicidal activity; conditions: Table III; 11.2 kg/h; 2 WAT
Procedure, shortened: as §1

[11] = tested on: Morningglory; experiment: Pre-emergent herbicidal activity; conditions: Table III; 11.2 kg/h; 2 WAT
Procedure, shortened: as §1

[12] = tested on: Velvetleaf; experiment: Post-emergence herbicidal activity, greenhouse
Procedure, shortened: (§2)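 2–3-week-old plants, post-emergence atomizer spray, ~0.4% emulsifier; candidate from 1.0% stock in acetone, THF or water. Greenhouse hold; injury vs control at ~2/4 WAT.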

[13] = tested on: Rice; experiment: Post-emergence herbicidal activity, greenhouse; conditions: Table II
Procedure, shortened: as §2

[14] = tested on: Smartweed; experiment: Post-emergence herbicidal activity, greenhouse
Procedure, shortened: as §2

[15] = tested on: Johnsongrass; experiment: Post-emergence herbicidal activity, greenhouse; conditions: Table I, 4 WAT
Procedure, shortened: as §2

[16] = tested on: Wild Buckwheat; experiment: Post-emergence herbicidal activity, greenhouse; conditions: Table II
Procedure, shortened: as §2

[17] = tested on: Cocklebur; experiment: Post-emergence herbicidal activity, greenhouse
Procedure, shortened: as §2

[18] = tested on: Soybean; experiment: Post-emergence herbicidal activity, greenhouse; conditions: Table II
Procedure, shortened: as §2

[19] = tested on: Barnyardgrass; experiment: Post-emergence herbicidal activity, greenhouse
Procedure, shortened: as §2

[20] = tested on: Sorghum; experiment: Post-emergence herbicidal activity, greenhouse; conditions: Table II
Procedure, shortened: as §2

[21] = tested on: Quackgrass; experiment: Post-emergence herbicidal activity, greenhouse; conditions: Table I, 4 WAT
Procedure, shortened: as §2

[22] = tested on: Downy Brome; experiment: Post-emergence herbicidal activity, greenhouse
Procedure, shortened: as §2

[23] = tested on: Hemp Sesbania; experiment: Post-emergence herbicidal activity, greenhouse; conditions: Table II
Procedure, shortened: as §2

[24] = tested on: Lambsquarters; experiment: Post-emergence herbicidal activity, greenhouse
Procedure, shortened: as §2

[25] = tested on: Yellow Nutsedge; experiment: Post-emergence herbicidal activity, greenhouse; conditions: Table I, 4 WAT
Procedure, shortened: as §2

[26] = tested on: Canada Thistle; experiment: Post-emergence herbicidal activity, greenhouse; conditions: Table I, 4 WAT
Procedure, shortened: as §2

[27] = tested on: Panicum Spp; experiment: Post-emergence herbicidal activity, greenhouse; conditions: Table II
Procedure, shortened: as §2

[28] = tested on: Crabgrass; experiment: Post-emergence herbicidal activity, greenhouse; conditions: Table II
Procedure, shortened: as §2

[29] = tested on: Morningglory; experiment: Post-emergence herbicidal activity, greenhouse
Procedure, shortened: as §2

[30] = tested on: Wheat; experiment: Post-emergence herbicidal activity, greenhouse; conditions: Table II
Procedure, shortened: as §2

[31] = tested on: Sugar Beet; experiment: Post-emergence herbicidal activity, greenhouse; conditions: Table II
Procedure, shortened: as §2

## COC(=O)CN(CP(=O)(Oc1ccccc1OC)Oc1ccccc1OC)SSc1cccc(C(F)(F)F)c1 [V]
[1]
  pre-emergent herbicidal activity index: 0 (0-24% control)
[2]
  pre-emergent herbicidal activity index: 1 (25-49% control)
[3]
  pre-emergent herbicidal activity index: 3 (75-100% control)
[4]
  pre-emergent herbicidal activity index: 0 (0-24% control)
[5]
  pre-emergent herbicidal activity index: 3 (75-100% control)
[6]
  pre-emergent herbicidal activity index: 1 (25-49% control)
[7]
  pre-emergent herbicidal activity index: 2 (50-74% control)
[8]
  pre-emergent herbicidal activity index: 0 (0-24% control)
[9]
  pre-emergent herbicidal activity index: 0 (0-24% control)
[10]
  pre-emergent herbicidal activity index: 2 (50-74% control)
[11]
  pre-emergent herbicidal activity index: 1 (25-49% control)
[12]; Table I, 5.6 kg/h, 4 WAT
  post-emergence herbicidal activity index: 1 (25-49% control)
[12]; Table I, 11.2 kg/h, 4 WAT
  post-emergence herbicidal activity index: 0 (0- 24% control)
[12]; Table II, 0.28 kg/h, 2 WAT
  post-emergence herbicidal activity index: 0 (0- 24% control)
[12]; Table II, 1.12 kg/h, 4 WAT
  post-emergence herbicidal activity index: 0 (0- 24% control)
[12]; Table II, 5.6 kg/h, 4 WAT
  post-emergence herbicidal activity index: 1 (25-49% control)
[13]; 0.28 kg/h, 2 WAT
  post-emergence herbicidal activity index: 0 (0- 24% control)
[13]; 1.12 kg/h, 4 WAT
  post-emergence herbicidal activity index: 0 (0- 24% control)
[13]; 5.6 kg/h, 4 WAT
  post-emergence herbicidal activity index: 1 (25-49% control)
[14]; Table I, 5.6 kg/h, 4 WAT
  post-emergence herbicidal activity index: 1 (25-49% control)
[14]; Table I, 11.2 kg/h, 4 WAT
  post-emergence herbicidal activity index: 2 (50-74% control)
[14]; Table II, 0.28 kg/h, 2 WAT
  post-emergence herbicidal activity index: 0 (0- 24% control)
[14]; Table II, 1.12 kg/h, 4 WAT
  post-emergence herbicidal activity index: 3 (75-99% control)
[14]; Table II, 5.6 kg/h, 4 WAT
  post-emergence herbicidal activity index: 2 (50-74% control)
[15]; 5.6 kg/h
  post-emergence herbicidal activity index: 1 (25-49% control)
[15]; 11.2 kg/h
  post-emergence herbicidal activity index: 2 (50-74% control)
[16]; 0.28 kg/h, 2 WAT
  post-emergence herbicidal activity index: 0 (0- 24% control)
[16]; 1.12 kg/h, 4 WAT
  post-emergence herbicidal activity index: 0 (0- 24% control)
[16]; 5.6 kg/h, 4 WAT
  post-emergence herbicidal activity index: 0 (0- 24% control)
[17]; Table I, 5.6 kg/h, 4 WAT
  post-emergence herbicidal activity index: 2 (50-74% control)
[17]; Table I, 11.2 kg/h, 4 WAT
  post-emergence herbicidal activity index: 3 (75-99% control)
[17]; Table II, 0.28 kg/h, 2 WAT
  post-emergence herbicidal activity index: 0 (0- 24% control)
[17]; Table II, 1.12 kg/h, 4 WAT
  post-emergence herbicidal activity index: 1 (25-49% control)
[17]; Table II, 5.6 kg/h, 4 WAT
  post-emergence herbicidal activity index: 3 (75-99% control)
[18]; 0.28 kg/h, 2 WAT
  post-emergence herbicidal activity index: 0 (0- 24% control)
[18]; 1.12 kg/h, 4 WAT
  post-emergence herbicidal activity index: 0 (0- 24% control)
[18]; 5.6 kg/h, 4 WAT
  post-emergence herbicidal activity index: 1 (25-49% control)
[19]; Table I, 5.6 kg/h, 4 WAT
  post-emergence herbicidal activity index: 3 (75-99% control)
[19]; Table I, 11.2 kg/h, 4 WAT
  post-emergence herbicidal activity index: 3 (75-99% control)
[19]; Table II, 0.28 kg/h, 2 WAT
  post-emergence herbicidal activity index: 0 (0- 24% control)
[19]; Table II, 1.12 kg/h, 4 WAT
  post-emergence herbicidal activity index: 0 (0- 24% control)
[19]; Table II, 5.6 kg/h, 4 WAT
  post-emergence herbicidal activity index: 3 (75-99% control)
[20]; 0.28 kg/h, 2 WAT
  post-emergence herbicidal activity index: 0 (0- 24% control)
[20]; 1.12 kg/h, 4 WAT
  post-emergence herbicidal activity index: 0 (0- 24% control)
[20]; 5.6 kg/h, 4 WAT
  post-emergence herbicidal activity index: 0 (0- 24% control)
[21]; 5.6 kg/h
  post-emergence herbicidal activity index: 1 (25-49% control)
[21]; 11.2 kg/h
  post-emergence herbicidal activity index: 4 (100% control)
[22]; Table I, 5.6 kg/h, 4 WAT
  post-emergence herbicidal activity index: 1 (25-49% control)
[22]; Table I, 11.2 kg/h, 4 WAT
  post-emergence herbicidal activity index: 1 (25-49% control)
[22]; Table II, 0.28 kg/h, 2 WAT
  post-emergence herbicidal activity index: 0 (0- 24% control)
[22]; Table II, 1.12 kg/h, 4 WAT
  post-emergence herbicidal activity index: 0 (0- 24% control)
[22]; Table II, 5.6 kg/h, 4 WAT
  post-emergence herbicidal activity index: 0 (0- 24% control)
[23]; 0.28 kg/h, 2 WAT
  post-emergence herbicidal activity index: 0 (0- 24% control)
[23]; 1.12 kg/h, 4 WAT
  post-emergence herbicidal activity index: 2 (50-74% control)
[23]; 5.6 kg/h, 4 WAT
  post-emergence herbicidal activity index: 1 (25-49% control)
[24]; Table I, 5.6 kg/h, 4 WAT
  post-emergence herbicidal activity index: 3 (75-99% control)
[24]; Table I, 11.2 kg/h, 4 WAT
  post-emergence herbicidal activity index: 3 (75-99% control)
[24]; Table II, 0.28 kg/h, 2 WAT
  post-emergence herbicidal activity index: 0 (0- 24% control)
[24]; Table II, 1.12 kg/h, 4 WAT
  post-emergence herbicidal activity index: 3 (75-99% control)
[24]; Table II, 5.6 kg/h, 4 WAT
  post-emergence herbicidal activity index: 3 (75-99% control)
[25]; 5.6 kg/h
  post-emergence herbicidal activity index: 1 (25-49% control)
[25]; 11.2 kg/h
  post-emergence herbicidal activity index: 1 (25-49% control)
[26]; 5.6 kg/h
  post-emergence herbicidal activity index: 0 (0- 24% control)
[26]; 11.2 kg/h
  post-emergence herbicidal activity index: 1 (25-49% control)
[27]; 0.28 kg/h, 2 WAT
  post-emergence herbicidal activity index: 0 (0- 24% control)
[27]; 1.12 kg/h, 4 WAT
  post-emergence herbicidal activity index: 0 (0- 24% control)
[27]; 5.6 kg/h, 4 WAT
  post-emergence herbicidal activity index: 1 (25-49% control)
[28]; 0.28 kg/h, 2 WAT
  post-emergence herbicidal activity index: 0 (0- 24% control)
[28]; 1.12 kg/h, 4 WAT
  post-emergence herbicidal activity index: 2 (50-74% control)
[28]; 5.6 kg/h, 4 WAT
  post-emergence herbicidal activity index: 3 (75-99% control)
[29]; Table I, 5.6 kg/h, 4 WAT
  post-emergence herbicidal activity index: 1 (25-49% control)
[29]; Table I, 11.2 kg/h, 4 WAT
  post-emergence herbicidal activity index: 2 (50-74% control)
[29]; Table II, 0.28 kg/h, 2 WAT
  post-emergence herbicidal activity index: 0 (0- 24% control)
[29]; Table II, 1.12 kg/h, 4 WAT
  post-emergence herbicidal activity index: 1 (25-49% control)
[29]; Table II, 5.6 kg/h, 4 WAT
  post-emergence herbicidal activity index: 1 (25-49% control)
[30]; 0.28 kg/h, 2 WAT
  post-emergence herbicidal activity index: 0 (0- 24% control)
[30]; 1.12 kg/h, 4 WAT
  post-emergence herbicidal activity index: 1 (25-49% control)
[30]; 5.6 kg/h, 4 WAT
  post-emergence herbicidal activity index: 3 (75-99% control)
[31]; 0.28 kg/h, 2 WAT
  post-emergence herbicidal activity index: 0 (0- 24% control)
[31]; 1.12 kg/h, 4 WAT
  post-emergence herbicidal activity index: 2 (50-74% control)
[31]; 5.6 kg/h, 4 WAT
  post-emergence herbicidal activity index: 2 (50-74% control)
